Experimental data taken from patent publication US20090062369A1, “USE OF SECRETORY PHOSPHOLIPASE A2 (SPLA2) INHIBITORS TO DECREASE SPLA2 LEVELS” (priority 2007, published 2009).

Test system: serum sPLA2
Experiment: Effect of twice-a-day oral A-002 on serum sPLA2 levels in subjects with stable coronary artery disease (Example 6)
Assay type: in vivo, human
Experimental: The protocol for preparing standard curve, test, and quality control samples for use in the assay disclosed herein is set forth in Example 5. Samples are prepared according to this protocol, then loaded in duplicate onto a plate (Cayman catalog no. 485002 or equivalent) that has been pre-coated with a monoclonal sPLA2 antibody (“capture antibody”) that specifically binds sPLA2. In certain embodiments, the capture antibody may interact with a specific form of sPLA2, such as for example sPLA2 type IIA.
sPLA2 acetylcholinesterase:Fab′ conjugate (AChE:Fab′) (“conjugate”) (Cayman catalog no. 485000 or equivalent) is reconstituted in EIA buffer (Cayman catalog no. 400060 or equivalent). Cayman EIA buffer is 1M phosphate, pH 7.0, 1% BSA, 4M NaCl, 10 mM EDTA, and 0.1% sodium azide. Reconstituted conjugate is added to each well of the plate. The conjugate binds a different sPLA2 epitope than the capture antibody, allowing the capture antibody and the conjugate to form a “sandwich” that is immobilized on the plate. Excess reagents are washed away, and the plate is covered and incubated overnight at 2-8° C.
Prior to development, the wells are washed five to six times with wash buffer (Cayman catalog no. 400062 or equivalent). To develop the plate, Ellman's Reagent (Cayman catalog no. 400050 or equivalent) is reconstituted in water and added to each well according to manufacturer instructions. The reconstituted Ellman's Reagent must be used the same day it is prepared because it is unstable. Ellman's Reagent contains an AChE substrate. Specifically, Ellman's Reagent contains acetylthiocholine and 5,5′-dithio-bis-(2-nitrobenzoic acid). Hydrolysis of acetylthiocholine by acetylcholinesterase produces thiocholine, which reacts with 5,5′-dithio-bis-(2-nitrobenzoic acid) to produce 5-thio-2-nitrobenzoic acid. 5-thio-2-nitrobenzoic acid has a strong absorbance at 412 nm. The intensity of absorbance at this wavelength is directly proportional to the concentration of bound conjugate, which is in turn is directly proportional to the concentration of sPLA2 present (Absorbance a [AChE:Fab′ conjugate] α [sPLA2]). During the development step, the plate is shaken, preferably in the dark. In certain embodiments the development time for the assay is 0.5 to 3 hours, preferably 1 to 1.5 hours. At the end of the development period, the high sPLA2 standards should have greater yellow color development than the zero standards. Absorbance of each well is measured at 400-420 nm using a micro-well plate reader. In certain embodiments, absorbance is measured at about 405 nm.
Absorbance readings for duplicate wells are averaged, and the relative standard deviation and % CV are calculated. Standard curve data are used to generate a four parameter curve, and quality control and test samples are measured against the appropriate standard curve (i.e., the standard curve with the same serum content). In order for a test to be considered valid, variation between duplicate wells should be no more than about 25%, and negative controls (blanks) for each standard curve should have a mean absorbance of less than about 0.3.
The method disclosed herein for measuring sPLA2 levels in serum was utilized to determine the effect of administering certain sPLA2 inhibitors on sPLA2 levels in 84 human subjects. The subjects included 24 subjects with diabetes, 32 subjects with metabolic syndrome, and 75 subjects receiving statin treatment. Subjects were administered the sPLA2 inhibitor A-002, a prodrug form of A-001, twice a day at varying dosages from 50 to 500 mg. The structures of A-002and A-001 are set forth below. At two weeks and four weeks after the first administration, sPLA2 levels were measured and compared to pre-administration baseline levels.
84 subjects with stable coronary artery disease were randomized to receive placebo or A-002 via oral administration twice a day over a four week administration period. […]

[1] = 100 mg, statin subgroup of ITT population
[2] = 250 mg, diabetes subgroup of ITT population
[3] = 250 mg, non-diabetes subgroup of ITT population
[4] = 250 mg, statin subgroup of ITT population
[5] = 500 mg, diabetes subgroup of ITT population
[6] = 500 mg, non-diabetes subgroup of ITT population

CCc1c(C(=O)C(N)=O)c2c(OCC(=O)OC)cccc2n1Cc1ccccc1 [A-002, [[3-(2-Amino-1,2-dioxoethyl)-2-ethyl-1-(phenylmethyl)-1H-indol-4-yl]oxy]acetic acid methyl ester]
sPLA2 Change from baseline at week 4, Range [1]: -5.70 to 0.00 ng/mL
sPLA2 level, Baseline, Mean [1]: 2.72 ng/mL
sPLA2 level, Baseline, Median [1]: 2.65 ng/mL
sPLA2 level, Baseline, Range [1]: 0.05 to 6.00 ng/mL
sPLA2 level, Week 2, Mean [1]: 0.66 ng/mL
sPLA2 level, Week 2, Median [1]: 0.40 ng/mL
sPLA2 level, Week 2, Range [1]: 0.05 to 2.90 ng/mL
sPLA2 level, Week 4, Mean [1]: 0.44 ng/mL
sPLA2 level, Week 4, Median [1]: 0.40 ng/mL
sPLA2 level, Week 4, Range [1]: 0.05 to 1.00 ng/mL
sPLA2 Change from baseline at week 2, Mean (250 mg, ITT population): -2.02 ng/mL
sPLA2 Change from baseline at week 2, Median (250 mg, ITT population): -1.90 ng/mL
sPLA2 Change from baseline at week 2, Range (250 mg, ITT population): -4.20 to -0.20 ng/mL
sPLA2 Change from baseline at week 4, Mean (250 mg, ITT population): -2.13 ng/mL
sPLA2 Change from baseline at week 4, Median (250 mg, ITT population): -2.20 ng/mL
sPLA2 Change from baseline at week 4, Range (250 mg, ITT population): -4.20 to 0.20 ng/mL
sPLA2 level, Baseline, Mean (250 mg, ITT population): 2.88 ng/mL
sPLA2 level, Baseline, Median (250 mg, ITT population): 2.40 ng/mL
sPLA2 level, Baseline, Range (250 mg, ITT population): 1.30 to 5.20 ng/mL
sPLA2 level, Week 2, Mean (250 mg, ITT population): 0.73 ng/mL
sPLA2 level, Week 2, Median (250 mg, ITT population): 0.35 ng/mL
sPLA2 level, Week 2, Range (250 mg, ITT population): 0.05 to 4.40 ng/mL
sPLA2 level, Week 4, Mean (250 mg, ITT population): 0.61 ng/mL
sPLA2 level, Week 4, Median (250 mg, ITT population): 0.35 ng/mL
sPLA2 level, Week 4, Range (250 mg, ITT population): 0.05 to 2.30 ng/mL
sPLA2 Change from baseline at week 2, Mean [2]: -1.83 ng/mL
sPLA2 Change from baseline at week 2, Median [2]: -1.10 ng/mL
sPLA2 Change from baseline at week 2, Range [2]: -4.20 to -0.20 ng/mL
sPLA2 Change from baseline at week 4, Mean [2]: -1.75 ng/mL
sPLA2 Change from baseline at week 4, Median [2]: -1.25 ng/mL
sPLA2 Change from baseline at week 4, Range [2]: −4.20 to +0.20 ng/ml
sPLA2 level, Baseline, Mean [2]: 3.00 ng/mL
sPLA2 level, Baseline, Median [2]: 3.00 ng/mL
sPLA2 level, Baseline, Range [2]: 1.30 to 4.70 ng/mL
sPLA2 level, Week 2, Mean [2]: 0.60 ng/mL
sPLA2 level, Week 2, Median [2]: 0.50 ng/mL
sPLA2 level, Week 2, Range [2]: 0.20 to 1.10 ng/mL
sPLA2 level, Week 4, Mean [2]: 0.68 ng/mL
sPLA2 level, Week 4, Median [2]: 0.50 ng/mL
sPLA2 level, Week 4, Range [2]: 0.05 to 1.50 ng/mL
sPLA2 Change from baseline at week 2, Mean [3]: -2.08 ng/mL
sPLA2 Change from baseline at week 2, Median [3]: -2.00 ng/mL
sPLA2 Change from baseline at week 2, Range [3]: -3.80 to -0.80 ng/mL
sPLA2 Change from baseline at week 4, Mean [3]: -2.25 ng/mL
sPLA2 Change from baseline at week 4, Median [3]: -2.20 ng/mL
sPLA2 Change from baseline at week 4, Range [3]: -3.50 to -1.20 ng/mL
sPLA2 level, Baseline, Mean [3]: 2.84 ng/mL
sPLA2 level, Baseline, Median [3]: 2.40 ng/mL
sPLA2 level, Baseline, Range [3]: 1.50 to 5.20 ng/mL
sPLA2 level, Week 2, Mean [3]: 0.76 ng/mL
sPLA2 level, Week 2, Median [3]: 0.30 ng/mL
sPLA2 level, Week 2, Range [3]: 0.05 to 4.40 ng/mL
sPLA2 level, Week 4, Mean [3]: 0.60 ng/mL
sPLA2 level, Week 4, Median [3]: 0.30 ng/mL
sPLA2 level, Week 4, Range [3]: 0.05 to 2.30 ng/mL
sPLA2 Change from baseline at week 2, Mean [4]: -2.01 ng/mL
sPLA2 Change from baseline at week 2, Median [4]: -1.65 ng/mL
sPLA2 Change from baseline at week 2, Range [4]: -4.20 to -0.20 ng/mL
sPLA2 Change from baseline at week 4, Mean [4]: -2.13 ng/mL
sPLA2 Change from baseline at week 4, Median [4]: -2.15 ng/mL
sPLA2 Change from baseline at week 4, Range [4]: −4.20 to +0.20 ng/ml
sPLA2 level, Baseline, Mean [4]: 2.84 ng/mL
sPLA2 level, Baseline, Median [4]: 2.40 ng/mL
sPLA2 level, Baseline, Range [4]: 1.30 to 5.20 ng/mL
sPLA2 level, Week 2, Mean [4]: 0.68 ng/mL
sPLA2 level, Week 2, Median [4]: 0.30 ng/mL
sPLA2 level, Week 2, Range [4]: 0.05 to 4.40 ng/mL
sPLA2 level, Week 4, Mean [4]: 0.57 ng/mL
sPLA2 level, Week 4, Median [4]: 0.30 ng/mL
sPLA2 level, Week 4, Range [4]: 0.05 to 2.30 ng/mL
sPLA2 Change from baseline at week 2, Mean (500 mg, ITT population): -2.84 ng/mL
sPLA2 Change from baseline at week 2, Median (500 mg, ITT population): -2.95 ng/mL
sPLA2 Change from baseline at week 2, Range (500 mg, ITT population): -4.80 to -0.55 ng/mL
sPLA2 Change from baseline at week 4, Mean (500 mg, ITT population): -2.87 ng/mL
sPLA2 Change from baseline at week 4, Median (500 mg, ITT population): -2.95 ng/mL
sPLA2 Change from baseline at week 4, Range (500 mg, ITT population): -4.80 to -0.55 ng/mL
sPLA2 level, Baseline, Mean (500 mg, ITT population): 2.96 ng/mL
sPLA2 level, Baseline, Median (500 mg, ITT population): 2.80 ng/mL
sPLA2 level, Baseline, Range (500 mg, ITT population): 0.60 to 5.40 ng/mL
sPLA2 level, Week 2, Mean (500 mg, ITT population): 0.18 ng/mL
sPLA2 level, Week 2, Median (500 mg, ITT population): 0.05 ng/mL
sPLA2 level, Week 2, Range (500 mg, ITT population): 0.05 to 0.60 ng/mL
sPLA2 level, Week 4, Mean (500 mg, ITT population): 0.15 ng/mL
sPLA2 level, Week 4, Median (500 mg, ITT population): 0.05 ng/mL
sPLA2 level, Week 4, Range (500 mg, ITT population): 0.05 to 0.60 ng/mL
sPLA2 Change from baseline at week 2, Mean [5]: -3.75 ng/mL
sPLA2 Change from baseline at week 2, Median [5]: -3.50 ng/mL
sPLA2 Change from baseline at week 2, Range [5]: -4.80 to -2.95 ng/mL
sPLA2 Change from baseline at week 4, Mean [5]: -3.82 ng/mL
sPLA2 Change from baseline at week 4, Median [5]: -3.70 ng/mL
sPLA2 Change from baseline at week 4, Range [5]: -4.80 to -2.95 ng/mL
sPLA2 level, Baseline, Mean [5]: 3.73 ng/mL
sPLA2 level, Baseline, Median [5]: 3.40 ng/mL
sPLA2 level, Baseline, Range [5]: 2.70 to 5.40 ng/mL
sPLA2 level, Week 2, Mean [5]: 0.32 ng/mL
sPLA2 level, Week 2, Median [5]: 0.30 ng/mL
sPLA2 level, Week 2, Range [5]: 0.05 to 0.60 ng/mL
sPLA2 level, Week 4, Mean [5]: 0.25 ng/mL
sPLA2 level, Week 4, Median [5]: 0.10 ng/mL
sPLA2 level, Week 4, Range [5]: 0.05 to 0.60 ng/mL
sPLA2 Change from baseline at week 2, Mean [6]: -2.61 ng/mL
sPLA2 Change from baseline at week 2, Median [6]: -2.68 ng/mL
sPLA2 Change from baseline at week 2, Range [6]: -4.40 to -0.55 ng/mL
sPLA2 Change from baseline at week 4, Mean [6]: -2.63 ng/mL
sPLA2 Change from baseline at week 4, Median [6]: -2.53 ng/mL
sPLA2 Change from baseline at week 4, Range [6]: -4.35 to -0.55 ng/mL
sPLA2 level, Baseline, Mean [6]: 2.73 ng/mL
sPLA2 level, Baseline, Median [6]: 2.70 ng/mL
sPLA2 level, Baseline, Range [6]: 0.60 to 4.60 ng/mL
sPLA2 level, Week 2, Mean [6]: 0.15 ng/mL
sPLA2 level, Week 2, Median [6]: 0.05 ng/mL
